Experimental data from ChEMBL document CHEMBL1149249 (J Med Chem, 2004).

Key:
Adenosine receptor A2a = Adenosine receptor A2a (Rattus norvegicus, UniProt P30543); assay: Displacement of [3H]ZM241385 from adenosine A2A receptor in rat brain membrane; format: cell membranes
Adenosine receptor A1 = biological target: T1, Adenosine receptor A1 (Rattus norvegicus, UniProt P25099); assay: Displacement of [3h]DPCPX from adenosine A receptor in rat cerebral cortex membrane
T1 sequence (P25099 whole entry): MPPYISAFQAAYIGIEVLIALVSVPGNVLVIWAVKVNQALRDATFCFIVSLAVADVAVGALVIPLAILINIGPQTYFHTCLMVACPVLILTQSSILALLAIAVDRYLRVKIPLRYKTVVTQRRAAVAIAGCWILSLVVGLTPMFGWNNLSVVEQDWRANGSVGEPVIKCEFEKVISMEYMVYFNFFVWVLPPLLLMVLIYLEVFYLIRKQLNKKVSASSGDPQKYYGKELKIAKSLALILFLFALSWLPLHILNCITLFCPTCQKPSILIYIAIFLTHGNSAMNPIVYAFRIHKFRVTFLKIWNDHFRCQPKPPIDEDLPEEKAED

Sequence of Adenosine receptor A2a (P30543 whole entry): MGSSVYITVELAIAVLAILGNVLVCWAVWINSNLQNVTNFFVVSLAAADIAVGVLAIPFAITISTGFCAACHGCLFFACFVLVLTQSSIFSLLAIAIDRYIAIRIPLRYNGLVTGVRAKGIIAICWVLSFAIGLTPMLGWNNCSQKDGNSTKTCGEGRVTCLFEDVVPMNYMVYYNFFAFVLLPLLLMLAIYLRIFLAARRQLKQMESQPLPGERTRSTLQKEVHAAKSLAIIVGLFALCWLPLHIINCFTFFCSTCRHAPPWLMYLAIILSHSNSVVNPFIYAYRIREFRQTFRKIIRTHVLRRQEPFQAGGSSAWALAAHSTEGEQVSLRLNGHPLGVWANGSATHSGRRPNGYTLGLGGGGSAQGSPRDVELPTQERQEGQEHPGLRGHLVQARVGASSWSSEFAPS

| Structure (SMILES) | Ki (Adenosine receptor A2a) | Ki (Adenosine receptor A1) |
| --- | --- | --- |
| Nc1nc(N2CCN3CCC[C@H]3C2)cc2nc(-c3ccco3)nn12 | 110 nM (antagonist) | > 500 nM |
| Nc1nc(N2CCN3C[C@@H](CNCc4ccc(F)cc4F)CC[C@H]3C2)nc2nc(-c3ccco3)nn12 | 2 nM (antagonist) | 1100 nM |
| Nc1cc(N2CCN3CCC[C@H]3C2)nc2nc(-c3ccco3)nn12 | 170 nM (antagonist) | > 500 nM |
| Nc1nc(N2CCN3C[C@H](COc4ccc5ccccc5n4)CC[C@H]3C2)nc2nc(-c3ccco3)nn12 | 7 nM (antagonist) | > 1000 nM |
| Nc1nc(N2CCN3C[C@@H](CN(Cc4ccccn4)Cc4ccccn4)CC[C@H]3C2)nc2nc(-c3ccco3)nn12 | 9 nM (antagonist) | > 500 nM |
| Nc1nc(N2CCN3CCC[C@@H]3C2)cc2nc(-c3ccco3)nn12 | 63 nM (antagonist) | 1100 nM |
| NC[C@H]1CC[C@H]2CN(c3cc4nc(-c5ccco5)nn4c(N)n3)CCN2C1 | 56 nM (antagonist) | > 500 nM |
| Cc1nn(C)c(Cl)c1CNC[C@H]1CC[C@H]2CN(c3nc(N)n4nc(-c5ccco5)nc4n3)CCN2C1 | 30 nM (antagonist) | > 500 nM |
| Nc1nc(N2CCN3C[C@H](COc4cccc(F)c4)CC[C@H]3C2)nc2nc(-c3ccco3)nn12 (mixture of isomers) | 53 nM (antagonist) | 960 nM (antagonist) |
| Nc1nc(N2CCN3C[C@@H](Cn4cncn4)CC[C@H]3C2)nc2nc(-c3ccco3)nn12 (racemic) | 4 nM (antagonist) | > 500 nM |
| Nc1nc(N2CCN3C[C@@H](CN(Cc4ccncc4)Cc4ccncc4)CC[C@H]3C2)nc2nc(-c3ccco3)nn12 (racemic) | 3 nM (antagonist) | 6000 nM |
| Nc1nc(N2CCN3C[C@H](COc4ccncc4)CC[C@H]3C2)nc2nc(-c3ccco3)nn12 (racemic) | 81 nM (antagonist) | > 1000 nM |
| Nc1nc(N2CCN3C[C@@H](Cn4cnnn4)CC[C@H]3C2)nc2nc(-c3ccco3)nn12 (racemic) | 14 nM (antagonist) | > 500 nM |
| Nc1cc(N2CCN3[C@@H](COc4cccnc4)CCC[C@H]3C2)nc2nc(-c3ccco3)nn12 (racemic) | 80 nM (antagonist) | > 500 nM |
| Nc1nc(N2CCN3C[C@@H](COc4cccc5cnccc45)CC[C@H]3C2)nc2nc(-c3ccco3)nn12 (racemic) | 6 nM (antagonist) | 3500 nM |
| Nc1nc(N2CCN3C[C@H](COc4ncnc5ccccc45)CC[C@H]3C2)nc2nc(-c3ccco3)nn12 (racemic) | 37 nM (antagonist) | > 1000 nM |
| Nc1nc(N2CCN3C[C@@H](COc4cc5ccccc5cn4)CC[C@H]3C2)nc2nc(-c3ccco3)nn12 (racemic) | 36 nM (antagonist) | > 1000 nM |
| Nc1nc(N2CCN3C[C@H](COc4cccc5cnccc45)CC[C@H]3C2)nc2nc(-c3ccco3)nn12 (racemic) | 73 nM (antagonist) | 210 nM (antagonist) |
| Nc1nc(N2CCN3C[C@@H](COc4ncnc5ccccc45)CC[C@H]3C2)nc2nc(-c3ccco3)nn12 (racemic) | 19 nM (antagonist) | > 500 nM |
| Nc1nc(N2CCN3C[C@@H](COc4cccnc4)CC[C@H]3C2)nc2nc(-c3ccco3)nn12 (racemic) | 0.3 nM (antagonist) | 1400 nM |
| Nc1nc(NC[C@@H]2CC[C@@H]3CN(Cc4ccc(F)cc4F)CCN3C2)nc2nc(-c3ccco3)nn12 (racemic) | 130 nM (antagonist) | > 500 nM |
| Nc1nc(NC[C@H]2CC[C@@H]3CN(c4ncccn4)CCN3C2)nc2nc(-c3ccco3)nn12 (racemic) | 230 nM (antagonist) | > 1000 nM |
| Cn1nc(C(F)(F)F)c(CN2CCN3C[C@@H](CNc4nc(N)n5nc(-c6ccco6)nc5n4)CC[C@@H]3C2)c1Cl (racemic) | > 500 nM | > 1000 nM |
| Nc1nc(NC[C@@H]2CC[C@@H]3CN(c4cc(F)cc(F)c4)CCN3C2)nc2nc(-c3ccco3)nn12 (racemic) | 49 nM (antagonist) | > 500 nM |
| Nc1nc(N2CCN3C[C@@H](COc4ncnc5[nH]ncc45)CC[C@@H]3C2)nc2nc(-c3ccco3)nn12 (racemic) | 5 nM (antagonist) | > 500 nM |
| Nc1nc(N2CCN3C[C@@H](Cn4ccnc4)CC[C@H]3C2)nc2nc(-c3ccco3)nn12 (racemic) | 0.3 nM (antagonist) | 1200 nM |
| Nc1nc(N2CCN3C[C@@H](COc4ccncc4)CC[C@H]3C2)nc2nc(-c3ccco3)nn12 (racemic) | 25 nM (antagonist) | > 1000 nM |
| Nc1nc(N2CCN3C[C@H](COc4ccccn4)CC[C@H]3C2)nc2nc(-c3ccco3)nn12 (racemic) | 41 nM (antagonist) | > 500 nM |
| Nc1nc(N2CCN3C[C@@H](COc4ccccn4)CC[C@H]3C2)nc2nc(-c3ccco3)nn12 (racemic) | 20 nM (antagonist) | > 1000 nM |

Continued, values first:

| Ki (Adenosine receptor A2a) | Ki (Adenosine receptor A1) | Structure (SMILES) |
| --- | --- | --- |
| 45 nM (antagonist) | > 1000 nM | Nc1nc(N2CCN3C[C@H](CNc4ncccn4)CC[C@H]3C2)nc2nc(-c3ccco3)nn12 |
| 47 nM (antagonist) | > 1000 nM | Nc1nc(N2CCN3C[C@@H](CN(Cc4ccco4)Cc4ccco4)CC[C@H]3C2)nc2nc(-c3ccco3)nn12 |
| 230 nM (antagonist) | > 1000 nM | Nc1nc(NC[C@@H]2CC[C@@H]3CN(Cc4ccc(F)cc4F)CCN3C2)cc2nc(-c3ccco3)nn12 |
| 4 nM (antagonist) | 7800 nM | Nc1nc(N2CCN3C[C@H](CN(Cc4cccnc4)Cc4cccnc4)CC[C@H]3C2)nc2nc(-c3ccco3)nn12 |
| 47 nM (antagonist) | > 1000 nM | Nc1nc(N2CCN3C[C@@H](CNc4ncccn4)CC[C@H]3C2)cc2nc(-c3ccco3)nn12 |
| 2 nM (antagonist) | 3500 nM | NC[C@@H]1CC[C@H]2CN(c3nc(N)n4nc(-c5ccco5)nc4n3)CCN2C1 |
| > 500 nM | > 1000 nM | Nc1nc(N2CCN3C[C@@H](CN(Cc4ccc(F)cc4F)Cc4ccc(F)cc4F)CC[C@H]3C2)nc2nc(-c3ccco3)nn12 |
| 490 nM (antagonist) | > 1000 nM | Nc1nc(N2C[C@@H]3CCCN3C[C@@H]2Cc2ccccc2)nc2nc(-c3ccco3)nn12 |
| 2 nM (antagonist) | > 1000 nM | Nc1nc(N2CCN3C[C@@H](CN(Cc4cccnc4)Cc4cccnc4)CC[C@H]3C2)nc2nc(-c3ccco3)nn12 |
| 180 nM (antagonist) | > 1000 nM | Cc1nn(C)c(Cl)c1CN(Cc1c(C)nn(C)c1Cl)C[C@H]1CC[C@H]2CN(c3nc(N)n4nc(-c5ccco5)nc4n3)CCN2C1 |
| 370 nM (antagonist) | > 500 nM | NC[C@@H]1CC[C@H]2CN(c3cc(N)n4nc(-c5ccco5)nc4n3)CCN2C1 |
| 110 nM (antagonist) | > 500 nM | NC[C@H]1CC[C@H]2CN(c3cc(N)n4nc(-c5ccco5)nc4n3)CCN2C1 |
| 51 nM (antagonist) | > 500 nM | Nc1nc(N2CCN3C[C@@H](CNCc4cccnc4)CC[C@H]3C2)nc2nc(-c3ccco3)nn12 |
| > 5000 nM |  | Nc1nc(N2CCNCC2)nc2nc(-c3ccco3)nn12 |
| 76 nM (antagonist) | > 1000 nM | Nc1cc(N2CCN3[C@@H](COc4ccc5[nH]ccc5c4)CCC[C@H]3C2)nc2nc(-c3ccco3)nn12 (racemic) |
| 830 nM (antagonist) | > 500 nM | Nc1cc(N2CCN3[C@@H](COc4ccc5cccnc5c4)CCC[C@H]3C2)nc2nc(-c3ccco3)nn12 (racemic) |
| 53 nM (antagonist) | > 500 nM | Nc1nc(N2CCN3C[C@H](COc4ccccc4)CC[C@H]3C2)nc2nc(-c3ccco3)nn12 (racemic) |
| 9 nM (antagonist) | 1500 nM | Nc1nc(N2CCN3C[C@@H](CNc4ncccn4)CC[C@H]3C2)nc2nc(-c3ccco3)nn12 (racemic) |
| 70 nM (antagonist) | > 500 nM | Nc1nc(N2CCN3C[C@@H](COc4ccc(F)cc4F)CC[C@H]3C2)nc2nc(-c3ccco3)nn12 (racemic) |
| 130 nM (antagonist) | 710 nM (antagonist) | Nc1nc(N2CCN3C[C@H](COc4cc5ccccc5cn4)CC[C@H]3C2)nc2nc(-c3ccco3)nn12 (racemic) |
| 35 nM (antagonist) | > 500 nM | COc1ccc(OC[C@H]2CC[C@H]3CN(c4nc(N)n5nc(-c6ccco6)nc5n4)CCN3C2)cc1 (racemic) |
| 0.9 nM (antagonist) | > 500 nM | Nc1nc(N2CCN3C[C@@H](COc4ccccc4F)CC[C@H]3C2)nc2nc(-c3ccco3)nn12 (racemic) |
| 4 nM (antagonist) | > 500 nM | Nc1nc(N2CCN3C[C@@H](COc4ccc(F)cc4)CC[C@H]3C2)nc2nc(-c3ccco3)nn12 (racemic) |
| 34 nM (antagonist) | > 1000 nM | COC(=O)c1nc(Cl)c(N2CCN3C[C@H](CNc4nc(N)n5nc(-c6ccco6)nc5n4)CC[C@@H]3C2)nc1N (racemic) |
| 36 nM (antagonist) | > 500 nM | Nc1nc(N2CCN3C[C@@H](CNCc4ccncc4)CC[C@H]3C2)nc2nc(-c3ccco3)nn12 (racemic) |
| 45 nM (antagonist) | > 500 nM | Nc1cc(N2CCN3C[C@@H](COc4ccccc4)CC[C@H]3C2)nc2nc(-c3ccco3)nn12 (racemic) |
| 13 nM (antagonist) | > 500 nM | Nc1nc(N2CCN3[C@@H](COc4ccccc4)CCC[C@H]3C2)nc2nc(-c3ccco3)nn12 (racemic) |
| 70 nM (antagonist) | > 500 nM | COc1ccc(OC[C@@H]2CC[C@H]3CN(c4nc(N)n5nc(-c6ccco6)nc5n4)CCN3C2)cc1 (racemic) |
